# Source: patent publication US20110183889A1, “SALICYLANILIDE MODIFIED PEPTIDES FOR USE AS ORAL THERAPEUTICS” (The Regents of the University of California, priority 2007, published 2011)
# How the values were obtained:
# [1] = system: LDL-induced monocyte chemotactic activity in cultures of human aortic endothelial cells; assay: HDL-inflammatory index: HDL from treated apoE null mice tested in human aortic endothelial cell cultures; assay type: in vivo; details: for HDL-inflammatory index, salicylanilide with D-4F or L-4F: FIG. 24, salicylanilide:peptide 10:1, peptide 5 μg by stomach tube
# Protocol: 11-month-old female apoE null mice were fasted during the day. At night the mice were provided chow containing or not containing additions. […] The mice were only given one gram of chow per mouse (n=8 mice per group) so that they would consume all of the chow. In the morning after the chow was consumed the mice were bled and their plasma was sucrose cryopreserved and fractionated by FPLC and the HDL-containing fractions were tested for their ability to inhibit monocyte chemotactic activity induced by a standard control human LDL (A) in cultures of human aortic endothelial cells. The mouse HDL (C-J) was also compared to a standard human HDL (B) that was added at the same concentrations as the mouse HDL. The resulting monocyte chemotactic activity was normalized to the standard control LDL added alone (A). The results are plotted as the HDL-inflammatory index, which is the result of dividing the monocyte chemotactic activity measured for each condition by the monocyte chemotactic activity obtained by the standard control LDL added alone, which was normalized to 1.0 as described previously (Navab et al. (2004) J Lipid Res, 45: 993-1007).
# A second experiment was performed as described for the first experiment with 8 mice in each group except that the additions to the chow were different. […] As in the first experiment the mice were only given one gram of chow per mouse so that they would consume all of the chow. In the morning this second group of mice were bled and their HDL tested in the human artery wall cell culture together with the HDL from the first experiment.
# L-4F (free base) was diluted with water to give 10 μg per 100 μL of water. […] The mice were fasted and after 7 hours they were bled and their plasma was sucrose cryopreserved. The plasma was fractionated by FPLC and the HDL-containing fractions were tested for their ability to inhibit the induction of monocyte chemotactic activity by a standard control human LDL, which was added to cultures of human aortic endothelial cells. The standard control human LDL was also added by itself or with a standard control human HDL. The values obtained by the standard control human LDL alone were normalized to 1.0. The values obtained after the addition of the standard control HDL or the mouse HDL were compared to the values obtained by the standard control LDL alone to give the HDL Inflammatory Index.
# Fasting was continued and the mice were bled 5 hours later and the HDL inflammatory index determined in cultures of human aortic endothelial cells as described in FIG. 8. Briefly, To determine the HDL-inflammatory index lipoproteins were added to human aortic endothelial cell cultures as described previously (Navab et al., (2005) Circulation Research 97: 524-532). A normal control human LDL was added to each well in triplicate at a final concentration of 100 μg/mL of LDL-cholesterol. A normal human HDL was added to three wells containing human LDL at a final concentration of 50 μg/mL HDL-cholesterol as a positive control. HDL from the mice at a final concentration of 50 μg/mL HDL-cholesterol was added in triplicate to other wells containing human LDL. After 8 hours of culture the supernatants were removed and monocyte chemotactic activity was determined as previously described (Navab et al. (2001) J. Lipid Res., 42: 1308-1317; Danciger et al. (2004) J. Immunol. Meth., 288: 123-124). The values obtained from wells containing the human LDL but no HDL were normalized to 1.0. The values obtained from wells containing the human LDL with either human or mouse HDL were divided by the values obtained from wells with human LDL without added HDL to give the HDL-inflammatory index as previously described (Ansell et al. (2003) Circulation 108: 2751-2756).
# [2] = system: monocyte chemotactic activity in cultures of human aortic endothelial cells; assay: LDL-inflammatory index: LDL from treated apoE null mice tested in human aortic endothelial cell cultures; assay type: in vivo; details: for LDL-inflammatory index, salicylanilide with D-4F or L-4F: FIG. 25, mice of FIG. 24
# Description: […] to induce monocyte chemotactic activity in cultures of human aortic endothelial cells and compared to a standard control human LDL whose values were normalized to 1.0 for the LDL-inflammatory index.
# [3] = solubilization of niclosamide in water by L-4F; assay type: physicochemical; details: FIG. 13; Niclosamide 10 mg per mL in water or water with 1.0 mg/mL L-4F, homogenized, 4° C. ten days
# Protocol: The solutions were stored at 4° C. for ten days and photographed (see FIG. 13).
# aortic sinus lesion area = assay: lesion regression in old apoE null mice, six months in chow; assay type: in vivo; details: FIGS. 32-34; L-4F 200 μg and niclosamide 2 mg/mouse/day in chow, pravastatin 50 μg/mouse/day, 26 weeks
# Description: Ninety-five female apoE null mice age 9.5 months from the UCLA breeding colony were identified. Twenty-three were sacrificed at time Zero (Group I) to establish lesion area at the start of the experiment. […] All groups received 50 micrograms/mouse/day of pravastatin in their drinking water. At the veterinarian's request because of fighting and/or ulcerative dermatitis mice were euthanized prior to the end of the experiment as follows: 6 mice from Group II; 5 mice from Group III; 4 mice from Group IV. After six months the remaining mice were sacrificed and aortic sinus lesion area was determined as described previously (Id.).
# In still another experiments, nine and half months-old female apoE null mice were divided into four groups: Group I was sacrificed to establish base line lesion area (Time Zero). […] Group III received L-4F at 200 μg/mouse/day in rodent chow. […] Groups II-IV received pravastatin 50 μg/mouse/day in drinking water. After 26 weeks the mice were sacrificed and aortic sinus lesion area was determined.
# [4] = cited from earlier work
# HDL function = details: drinking water of apoE null mice for 24 hours; D-4F 1 μg/ml, statin 0.05 mg/ml; related application U.S. Ser. No. 10/423,830; cited from earlier work
# [5] = mouse, in vivo, po
# [6] = system: atherosclerosis in apoE Null mice; assay: atherosclerosis lesions (aortic sinus, en face, macrophage area), 14 weeks in chow; assay type: in vivo; details: FIGS. 29-31, L-4F 25 and niclosamide 250 μg/mouse/day in chow, all groups pravastatin 50 μg/mouse/day
# [7] = self-association of L-4F in aqueous environment (non-denaturing gel); assay type: physicochemical; details: FIG. 39 lane 2
# Description: Lane 1 contains molecular weight markers (HMW).
# [8] = system: LDL-induced monocyte chemotactic activity in cultures of human aortic endothelial cells; details: administered orally to mice; Navab et al. 2002; cited from earlier work
# [9] = mouse, in vivo; cited from earlier work
# [10] = molecular target: the molecule itself; assay: non-denaturing gel (4-20%, coomassie blue), L-4F alone in lane 2; self-association of the peptide
# [11] = FIG. 22, peptide 10 μg with or without niclosamide 10:1, ABCT pH 8.0, stomach tube, seven hours
molecule,measurement,setting,value
O=C(Nc1ccc([N+](=O)[O-])cc1Cl)c1ccc(Cl)cc1O [BP-1001],"HDL-inflammatory index, salicylanilide with D-4F or L-4F",[1]; six hours,more potent than niclosamide
same,"LDL-inflammatory index, salicylanilide with D-4F or L-4F",[2],more potent
O=C(Nc1ccc([N+](=O)[O-])cc1Cl)c1ccc(O)c(Cl)c1 [BP-1012],"HDL-inflammatory index, salicylanilide with D-4F or L-4F",[1]; six hours,more potent than niclosamide
same,"LDL-inflammatory index, salicylanilide with D-4F or L-4F",[2],more potent
"O=C(Nc1ccc([N+](=O)[O-])cc1Cl)c1cc(Cl)ccc1O [Niclosamide, 5-chloro-N-(2-chloro-4-nitrophenyl)-2-hydroxybenzamide]",enhancement of the ability of L-4F to render HDL anti-inflammatory,"[1]; FIG. 16, niclosamide 250 μg/day in chow, L-4F 25 μg/day in drinking water or chow, three days",greatly enhanced
same,enhancement of the ability of L-4F to decrease LDL-induced monocyte chemotactic activity,"[2]; FIG. 17, niclosamide 250 μg/day in chow, L-4F 25 μg/day in drinking water or chow, three days",greatly enhanced
same,solubility of niclosamide in aqueous solution,[3],relatively insoluble
same,lesions in old apoE null mice versus Time Zero,aortic sinus lesion area,neither niclosamide nor L-4F without niclosamide significantly reduced lesions
same,water solubility,"[4]; at 20° C., ethanolamine salt in distilled water",5 to 8 µg/mL
same,solubility in acetone,[4],soluble
same,"solubility in ether, ethanol and chloroform",[4],sparingly soluble
same,stability in tablets,[4]; moist environments,undergoes a biodegradation
"CC(C)c1c(C(=O)Nc2ccccc2)c(-c2ccccc2)c(-c2ccc(F)cc2)n1CC[C@@H](O)C[C@@H](O)CC(=O)O [atorvastatin, reference compound]",HDL function,HDL function,did not improve HDL function
Ac-DWFKAFYDKVAEKFKEAF-NH2 [D-4F],HDL-inflammatory index,[1]; [11],able to render apoE null mouse HDL anti-inflammatory to a degree comparable to normal human HDL
same,detectability in the circulation,[5],essentially non-detectable
same,HDL function,HDL function,did not significantly improve HDL function
"Ac-DWFKAFYDKVAEKFKEAF-NH2 [L-4F, Ac-D-W-F-K-A-F-Y-D-K-V-A-E-K-F-K-E-A-F-NH2]",HDL-inflammatory index,"[1]; FIG. 8, female apoE null mice, additions to 1 g chow overnight: L-4F 2 or 10 μg, Niclosamide 8 or 100 μg",slightly but significantly improved
same,HDL-inflammatory index,[1]; [11],only able to achieve this degree of efficacy when co-administered with niclosamide
same,HDL-inflammatory index,"[1]; FIG. 37, fractions containing 10 μg L-4F or 10 μg niclosamide in ABCT by stomach tube, six hours",not effective
same,"atherosclerosis (aortic sinus lesion, en face, macrophage lesion area)",[6],not without niclosamide
same,lesions in old apoE null mice versus Time Zero,aortic sinus lesion area,neither niclosamide nor L-4F without niclosamide significantly reduced lesions
same,molecular weight of micelles formed by self-association,[7],> 100 kDa
same,protective capacity of HDL to inhibit LDL-induced monocyte chemotactic activity,[8],did not significantly alter
same,detectability in the circulation,[5],essentially non-detectable
same,degradation after oral administration,[9],rapidly degraded
"Ac-DWFKAFYDKVAEKFKEAF-NH2 (It self-associates into micelles; also called L-4F (free base)) [L-4F (Ac-D-W-F-K-A-F-Y-D-K-V-A-E-K-F-K-E-A-F-NH2, all L amino acids)]",binding result,[10],binds
